Where “and” joins values, the source holds several entries; their conditions need not be identical. Equal values may be shown once.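 Values below derive from 48-hour exposures of cells grown in 96-well plates, with endpoints linearly interpolated between the two concentrations bracketing the appropriate inhibition level. The concentration for 50% growth inhibition is given as GI50. TGI denotes the concentration required for complete inhibition of growth.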
Key:
Test in all cases: NCI tumour cell line growth inhibition, 48 h
EKVX NSCLC = system: EKVX NSCLC
A498 renal = system: A498 renal
OVCAR-4 ovarian = system: OVCAR-4 ovarian
CAKI-1 renal = system: CAKI-1 renal
HCT-15 colon = system: HCT-15 colon
NCI-H522 lung = system: NCI-H522 lung
ACHN renal = system: ACHN renal
RPMI-8226 leukemia = system: RPMI-8226 leukemia
DMS 114 small cell lung = system: DMS 114 small cell lung
M19-MEL melanoma = system: M19-MEL melanoma
SNB-78 CNS = system: SNB-78 CNS
LXFL 529 NSCLC = system: LXFL 529 NSCLC

Row | SMILES | GI50 (EKVX NSCLC) | TGI (EKVX NSCLC) | GI50 (A498 renal) | TGI (A498 renal) | GI50 (OVCAR-4 ovarian) | TGI (OVCAR-4 ovarian) | GI50 (CAKI-1 renal) | TGI (CAKI-1 renal) | GI50 (HCT-15 colon) | TGI (HCT-15 colon) | GI50 (NCI-H522 lung) | TGI (NCI-H522 lung) | GI50 (ACHN renal) | TGI (ACHN renal) | GI50 (RPMI-8226 leukemia) | TGI (RPMI-8226 leukemia) | TGI (DMS 114 small cell lung) | TGI (M19-MEL melanoma) | TGI (SNB-78 CNS) | TGI (LXFL 529 NSCLC)
1 | COc1cc2c3c(n(CCCNCCCNCCCN)c(=O)c2cc1OC)-c1cc2c(cc1C3=O)OCO2 | > 100 µM | > 100 µM | > 100 µM | > 100 µM | 6.63 µM | > 100 µM | 26.3 µM | > 100 µM | 73.6 µM | > 100 µM | > 100 µM | > 100 µM | 91.6 µM | > 100 µM | > 100 µM | > 100 µM | – | – | – | –
2 | Cc1cc(C)nc(NS(=O)(=O)c2ccc(Nc3c4ccccc4nc4c(C(=O)NCCN(C)C)cccc34)cc2)n1 | – | 23.6 µM | – | – | – | 11.9 µM | – | – | – | 19.3 µM | – | 4.28 µM | – | 15.9 µM | – | – | 17.5 µM | 14.9 µM | 45.2 µM | 20 µM
3 | COc1ccc(C(O)c2cc3c(N)c(C(=O)Nc4cccc(Br)c4C)sc3nc2C)cc1 (stereo not given) | 0.259 µM | > 33.3 µM | 0.082 µM | 1.28 µM | 2.81 µM | > 33.3 µM | 0.151 µM | 18.1 µM | 0.138 µM | > 14.4 µM | 0.157 µM | – | 0.216 µM | > 26.4 µM | 0.167 µM | > 33.3 µM | – | – | – | –
4 | CNC(=O)OCc1nc(SC)n(C)c1COC(=O)NC | – | 492 µM | – | 386 µM | – | 281 µM | – | 497 µM | – | 410 µM | – | 246 µM | – | 361 µM | – | 736 µM | 199 µM | 369 µM | 359 µM | –
5 | CCCCCC[C@H]1C(=O)O[C@H](C)[C@H](NC(=O)c2cccc(NC=O)c2OC)C(=O)O[C@@H](C)[C@@H]1OC(=O)CCC (tested in a mixture with another compound) | 6 µM | 24.2 µM | 10 µM | 29.7 µM | 12.7 µM | 29 µM | 9.71 µM | 24.4 µM | 11.1 µM | 33.3 µM | 13 µM | 34.4 µM | 10.1 µM | 23.1 µM | 12.2 µM | 37.9 µM | – | – | – | –
6 | CCOc1ccc2cc(-c3nn(CC4CCNCC4)c4ncnc(N)c34)ccc2c1 | 22.5 µM | > 100 µM | 11.2 µM | 24.9 µM | 10.9 µM | 33.4 µM | 19.2 µM | 60 µM | 13.5 µM | 32.1 µM | 15.8 µM | 30.4 µM | 15.1 µM | 29.8 µM | 14 µM | 34.6 µM | – | – | – | –
7 | OCC(O)C(O)C(O)c1nn(-c2ccc(F)cc2)c2nc3cc(Cl)c(Cl)cc3nc12 (stereo not given) | – | 49.2 µM | – | – | – | > 100 µM | – | 55.6 µM | – | > 100 µM | – | 31.4 µM | – | – | – | > 100 µM | 71.4 µM | 57.8 µM | 27.4 µM | > 100 µM
8 | Nc1ncc2ncn(C3CCC(CO)O3)c2n1 (stereo not given) | – | > 100 µM | – | > 100 µM | – | > 100 µM | – | > 100 µM | – | > 100 µM | – | > 100 µM | – | > 100 µM | – | > 100 µM | – | – | – | –
9 | CC1OC(OC2C(O)C(O)C(O)C(O)C2O)C(N)CC1N=C(N)C(=O)O (stereo not given) | – | > 100 µM | – | > 100 µM | – | > 100 µM | – | > 100 µM | – | > 100 µM | – | > 100 µM | – | > 100 µM | – | > 100 µM | – | – | – | –
10 | O=CN1N=C(c2cccc(Nc3ccnc4cc(Cl)ccc34)c2)CC1c1ccc(Cl)cc1 (stereo not given) | > 100 µM | > 100 µM | 0.832 µM | 6.18 µM | 4.13 µM | > 100 µM | 0.954 µM | > 100 µM | 0.903 µM | > 100 µM | 0.798 µM | 70.1 µM | 5.17 µM | > 100 µM | 2.45 µM | > 100 µM | – | – | – | –
11 | CCOC(=O)/C(=C\c1ccc2ccccc2c1)P(=O)(OCC)OCC | 4.28 µM | 16 µM | 3.73 µM | 10.9 µM | 4.16 µM | 20.1 µM | 3.06 µM | 12 µM | 1.7 µM | 4.45 µM | 1.52 µM | 3.35 µM | 2.31 µM | 6.3 µM | 2.27 µM | 6.54 µM | – | – | – | –
12 | NCCCN=c1ccc2c3c1c(O)c1c(O)ccc(=O)c1c3[nH]n2CCNCCO | 6.08 µM and 4.62 µM | 17.9 µM and 42 µM | – | 7.19 µM and 8.57 µM | – | 10.5 µM and 20.1 µM | 1.1 µM and 0.528 µM | 11.2 µM and 3.84 µM | 1.4 µM | 25 µM and 112 µM | 0.55 µM | 4.69 µM and 3.28 µM | – | 4.52 µM | 2.93 µM | 9.94 µM and 22.3 µM | > 250 µM | > 250 µM | 4.15 µM | –
13 | COc1cc2ncnc(Oc3cccc(NC(=O)Nc4cc(C(C)(C)C(F)(F)F)on4)c3)c2cc1OC | 1.52 µM | > 10 µM | 0.322 µM and 1.05 µM | 1.36 µM and 3.62 µM | 2.15 µM and 2.8 µM | > 100 µM | 1.06 µM and 1.44 µM | > 43 µM | 2.16 µM and 2.67 µM | 12.5 µM and > 10 µM | 0.37 µM and 0.407 µM | 12.6 µM and > 7.06 µM | 0.438 µM and 0.598 µM | 12.9 µM and > 10 µM | 2.6 µM and 2.93 µM | 11.3 µM and > 10 µM | – | – | – | –
14 | O=C(O)CSc1n[nH]c(-c2ccco2)n1 | – | > 100 µM | – | > 100 µM | – | > 100 µM | – | > 100 µM | – | – | – | > 100 µM | – | > 100 µM | – | > 100 µM | – | > 100 µM | > 100 µM | > 100 µM
15 | C#C[C@]1(O)CC[C@H]2[C@@H]3CC=C4c5nc(N)sc5CC[C@]4(C)[C@H]3CC[C@@]21C | 5.47 µM | 50.9 µM | 1.96 µM | 4.21 µM | 13.2 µM | 70.5 µM | 3.08 µM | 14.8 µM | 3.2 µM | 17.3 µM | 2.52 µM | 7.94 µM | 5.25 µM | 30.2 µM | 1.57 µM | 4.73 µM | – | – | – | –
16 | CC1(C)N=C(N)N=C(N)N1c1cccc(CCc2ccccc2)c1 | 1.1 µM | > 100 µM | 3.57 µM | 96.9 µM | 0.528 µM | 79.5 µM | 40.2 µM | > 100 µM | 45.6 µM | > 100 µM | 0.429 µM | 34.8 µM | 13.4 µM | > 100 µM | 1.63 µM | > 58.6 µM | – | – | – | –
